This note sets out measurements from patent publication US20170121683A1, “ARYL HYDROCARBON RECEPTOR DISRUPTION AND ENHANCEMENT” (priority 2015, published 2017).

One test relates to hESCs (H9). The test can be described thus: Hemato-endothelial differentiation of hESCs, flow cytometry, fold change vs DMSO (Example 2). The format is cell-based, human. The method, then:
FIG. 7A. Schema of hESC differentiation into early hemato-endothelial cells as spin-embryoid bodies (spin-EBs). hESCs are made into spin-EBs at Day 0 and conditioned into mesoderm lineages for 6 days using defined cytokines (Stage 1). At Day 6, spin-EBs are transferred into hemato-endothelial culture media (Stage 2) to promote endothelial and hematopoietic cell differentiation. For these studies, cells are treated with either 1 μM SR-1, 10 nM TCDD, or DMSO vehicle control beginning at Day 6+0 with media exchanges and/or harvesting performed at Day 6+3, Day 6+6, and Day 6+9. FIG. 7B. Representative flow cytometry plots of one hESCs differentiation. Both adherent and non-adherent cell fractions are harvested at Day 6+3, Day 6+6, and Day 6+9 and assessed for endothelial cell (CD34^+CD31^+, CD34^+CD144^+) and hematopoietic progenitor cell (CD34^+CD43^+, CD34^+CD45^+) phenotypes. FIG. 7C. Fold change of the total percentage of each hemato-endothelial phenotype for SR-1 and TCDD treated hESCs normalized to matched DMSO treated controls. n=4-6, error bars represent SEM, *p<0.05 as compared to DMSO treated controls by student's t-test. N/A: Not applicable due to absence appreciable of CD34^+CD45^+ populations at Day 6+3 time point.
Single-cell adapted hESCs (H9) were maintained on irradiated mouse embryonic fibroblasts (MEF) in ES growth media, as previously described in Ferrell et al. Stem Cells. 2015; 33(4):1130-41. hESCs were allowed to differentiate as spin-embryoid bodies (EBs) as previously described in Ferrell et al. and Ng et al. Nat. Protoc. 2008; 3(5):768-776 (FIG. 7A). In brief, hESCs were plated at 3,000 cells/100 μL in a round-bottom 96-well plate using serum-free BPEL media supplemented with 20 ng/mL BMP4, 40 ng/mL SCF, and 20 ng/mL VEGF (all R&D Systems, Minneapolis, Minn.). Cells were centrifuged to form embryoid bodies (defined as Day 0) and were incubated for 6 additional days (defined as Day 6) to promote mesoderm induction. To differentiate early endothelial and hematopoietic progenitor cells, Day 6 EBs were transferred to pre-gelatinized 24-well plates (approx. 8-16 EBs/well) with BEL media supplemented with 40 ng/mL SCF, 40 ng/mL VEGF, […] thrombopoietin (all R&D Systems, Minneapolis, Minn.), 30 ng/mL IL-3, and 30 ng/mL IL-6 (both PeproTech, Rocky Hill, N.J.). To modulate AHR activity, EBs were treated at Day 6+0 with DMSO, 1 μM SR-1 (Cellagen Technologies, San Diego, Calif.), or 10 nM 2,3,7,8-tetrachlorodibenzo-p-dioxin (TCDD) (Sigma-Aldrich, St. Louis, Mo.). Media was exchanged every 3 days with small molecule and cytokine supplementation. At indicated time points, non-adherent cell fractions were collected and saved while the remaining adherent fractions were treated with 0.05% trypsin containing 2% chicken serum. Adherent cells were combined with the non-adherent fractions for analysis, unless otherwise stated.
The following additional antibodies were used (all anti-human): LFA-1 (CD11a/CD18)-APC-R700 (BD Biosciences), CD31-APC (eBioscience), CD33-APC (BD Biosciences), CD34-PECy7 (BD Biosciences), CD34-APC (BD Biosciences), CD41a-APC (BD Biosciences), CD43-APC (BD Biosciences), CD45-APC (BD Biosciences), CD56-PECy7 (BD Biosciences), CD56-BV421 (BD Biosciences), CD94-PerCP-Cy5.5 (BD Biosciences), CD117-PECy7 (BD Biosciences), CD117-APC (eBiosciences), CD144-APC (eBioscience). Samples were analyzed on either an LSRFortessa or LSRII flow cytometer (BD Biosciences). Gating was set relative to isotype controls of identical fluorophores. Data from flow cytometry was analyzed using FlowJo software (Treestar, Ashland, Oreg.).
For orientation: A flow cytometer gives signals particle by particle.

Test [1] relates to hESC-derived non-adherent hematopoietic progenitor cells. Nature of the test: Hematopoietic colony-forming unit (CFU) assay (Example 2). The settings on record: cells harvested at Day 6+5, 14 days in Methocult, n=3. The format is cell-based, human. The text has this: FIG. 9A. Non-adherent hematopoietic progenitor cells derived from hESCs differentiated in the presence of SR-1, TCDD, or DMSO controls were harvested at Day 6+5 and seeded at 50,000 cells/dish in a standard methylcellulose colony-forming unit assay (CFU). Colonies were counted for each treatment group following 2 weeks of culture and scored for the following morphological subsets: BFU-E: burst-forming unit-erythroid; CFU-E: colony-forming unit-erythroid; CFU-GM: colony-forming unit-granulocyte, macrophage, CFU-M: colony-forming unit-macrophage; CFU-GEMM: colony-forming unit-granulocyte, erythroid, macrophage, megakaryocyte. n=3, error bars represent SEM of the total number of colonies/50,000 cells seeded, *p<0.05 as assessed with one-way ANOVA+Tukey-Kramer multiple comparisons post-hoc test. FIG. 9B. Non-adherent hematopoietic progenitor cells derived from hESCs differentiated in the presence of SR-1, TCDD, or DMSO controls were harvested at Day 6+3, Day 6+6, and Day 6+9 time points and probed for gene expression by quantitative real-time PCR (qRT-PCR). […]
Day 6+5 spin-EB non-adherent fractions were resuspended in IMDM. […] Plates were incubated for 14 days and subsequently counted and phenotypically scored using standard criteria (Kaufman et al. Proc. Natl. Acad. Sci. U.S.A. 2001; 98(19):10716-21).

Consider `Clc1cc2c(cc1Cl)Oc1cc(Cl)c(Cl)cc1O2` [TCDD, 2,3,7,8-tetrachlorodibenzo-p-dioxin], for which, in the test on hESCs (H9) (Day 6+9, 10 nM TCDD), the “CD34+CD45+ hematopoietic progenitor cells, fold change normalized to DMSO” value stood at 0.44±0.06; the “total percent of CD34+CD31+ cells, fold change normalized to DMSO” value is listed as 0.49±0.06; the “total percent of CD34+CD43+ cells, fold change normalized to DMSO” value stood at 0.67±0.09; the “total percent of CD34+CD144+ cells, fold change normalized to DMSO” value came to 0.33±0.13. In addition, in the test on hESCs (H9) (Day 6+9, 10 nM TCDD), the “total percent of CD34− hematopoietic cells” value is recorded as “increase”. The “total number of colonies / 50,000 cells seeded” value in test [1] was found to be 28.3±2.67 colonies.

In the case of `CC(C)n1cnc2c(NCCc3ccc(O)cc3)nc(-c3csc4ccccc34)nc21` [SR-1, StemReginin-1], in the test with hESCs (H9) (Day 6+3, 1 μM SR-1), the “total percentage of CD34+CD31+ cells, fold vs DMSO controls” value is reported as 1.58±0.28 fold and the “total percentage of CD34+CD144+ cells, fold vs DMSO controls” value came to 1.71±0.22 fold. In addition, in the test with hESCs (H9) (Day 6+6, 1 μM SR-1), the “total percentage of CD34+CD31+ hemato-endothelial cells, fold vs DMSO controls” value came out at 1.62±0.12 fold and the “total percentage of CD34+CD43+ hematopoietic progenitor cells, fold vs DMSO controls” value was 1.36±0.12 fold. Moreover, the “CD34+CD45+ hematopoietic progenitor cells, fold change normalized to DMSO” value in the test on hESCs (H9) (Day 6+9, 10 nM TCDD) was 1.40±0.11. In test [1], the “total number of colonies / 50,000 cells seeded” value is listed as 245.67±64.4 colonies.
